Laboratory results from PubChem BioAssay (NCI).
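Cells were grown in 96-well plates and exposed to each compound for 48 hours at five concentrations; endpoints were interpolated linearly between bracketing concentrations, or set to the highest concentration if not reached. The concentration for full growth arrest is given as TGI.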 *1 amine or outer side, *2 acyl side, *3 side chain or, on linkers, in order; H or OH if unused. Where a SMILES comes first, the peptide text is derived from it. Bridges are numbered along the chain shown (N, C = ends). [ ]: non-standard residue; d: D form. The star is where a group is joined. X38 = CC[C@H](C)[C@@H](N[*:1])[C@@H](O)CC(=O)[*:2]; NMeY = CN[C@@H](Cc1ccc(O)cc1)C(=O)O; dNMeL = CN[C@H](CC(C)C)C(=O)O; Hiv = CC(C)[C@H](O)C(=O)O; Pyruvoyl = CC(=O)C(=O)*

How the values were obtained:
Assay in all cases: NCI-60 cell line screen, 48 h
[1] = test system: ACHN renal
[2] = test system: CAKI-1 renal
[3] = test system: KM12 colon
[4] = test system: HOP-92 NSCLC
[5] = test system: HOP-18 NSCLC
[6] = test system: DLD-1 colon
[7] = test system: SF-295 CNS
[8] = test system: MALME-3M melanoma
[9] = test system: LXFL 529 NSCLC
[10] = test system: MDA-N
[11] = test system: MDA-MB-435
[12] = test system: DU-145 prostate

SMILES	TGI [1] [µM]	TGI [2] [µM]	TGI [3] [µM]	TGI [4] [µM]	TGI [5] [µM]	TGI [6] [µM]	TGI [7] [µM]	TGI [8] [µM]	TGI [9] [µM]	TGI [10] [µM]	TGI [11] [µM]	TGI [12] [µM]
CC(=O)OCC(=O)[C@@]1(O)CC[C@H]2[C@@H]3CCC4=CC(=O)[C@H](C)C[C@]4(C)[C@H]3[C@@H](O)C[C@@]21C	> 100	> 100	> 100	> 100	> 100	> 100	> 100	> 100				
CC1CC2OC(=O)C3CC(O)CC(=C23)[C@@]12C[C@@H](c1ccoc1)OC2=O (some centres not stated)	> 100		> 100	> 100	> 100	> 100	> 100	> 100	> 100			
C/C(=N\N)C(CN(C)C)C(c1ccccc1)c1c(O)c2ccccc2oc1=O (configuration not stated)	> 100	> 100	> 100	> 100	> 100	> 100	> 100	> 100	> 100	> 100	> 100	> 100
O=P(O)(OCC(O)O)OCC(O)O	> 100		> 100	> 100	> 100	> 100	> 100	> 100	> 100			
CCCCCCn1c(SCC)c2ccccc2c1-c1nc(F)nc(F)n1	> 100	> 100	> 100	> 100		> 100	> 100	> 100	> 100			
C/C(CN1C(=O)c2ccccc2C1=O)=N\NS(=O)(=O)c1ccc(Br)cc1	> 100	> 100	> 100	> 100	> 100	> 100	> 100	> 100	> 100			
Cn1c(O)c(C(=O)Nc2cccs2)c(=O)[nH]c1=S	43.7	47.8	33.4	33.4	8.34	73.9	38.1	29.5	40.8			
NC(=S)NNC(=O)/C(=C/c1ccc(/C=C(\NC(=O)c2ccccc2)C(=O)NNC(N)=S)cc1)NC(=O)c1ccccc1	> 100	> 100	> 100	> 100	> 100	> 100	> 100	> 100	> 100			
CCOC(=O)CCC(NC(=O)Cc1ccc(Nc2nc3ccccc3nc2-c2ccccc2)cc1)C(=O)OCC (configuration not stated)	> 100	> 100	> 100	45.8			48.4	> 100		> 100	> 100	> 100
Oc1ccccc1/C=N/Nc1nnc2c3ccccc3c3ccccc3c2n1	> 100	> 100	> 100	> 100			> 100	> 100		> 100	> 100	> 100
COc1cc(/C=C/C(=O)c2sc(-n3nc(-c4ccccc4)cc3-c3ccccc3)nc2C)ccc1O	> 100	> 100	> 100	> 100	> 100	> 100	> 100	> 100				
Fc1c(F)c(C(F)(F)F)c(F)c(F)c1N/N=C\c1c[nH]c2ccccc12	19.5	8.14	4.06	16.5			6.82	16.1		3.61	3.14	15.8
Fc1cc(C2=C[C@H](c3ccc(Cl)cc3)NC(=S)N2)c(Cl)cc1Cl	> 100	> 100	> 100	> 100			> 100	> 100		> 100	> 100	> 100
CC(C)=CCCC1(C)C=Cc2c(c(C)cc3c2[nH]c2cc(O)ccc23)O1 (configuration not stated)	> 25		> 25	> 25	> 25	> 25		> 25	> 25			
O=S(=O)([O-])[O-].[Fe+2].c1ccc(/C(=N\Nc2ccccn2)c2ccccn2)cc1	5.35	10.5	14.6	7.67	14.6	11.2	8.77	10.1	12.3			
CC1C2CC(CC(=O)N2)C1(C)C (configuration not stated)	> 100	> 100	> 100	> 100			> 100	> 100		> 100	> 100	> 100
CCOC(C[C@H](O)[C@H]1COC(=S)S1)OCC	> 100		> 100				> 100	> 100	> 100			
NC(=O)C(Nc1c(Cl)cccc1Cl)c1cc2cc(Br)ccc2nc1Cl (configuration not stated)	> 100	> 100	> 100	> 100			> 100	> 100		> 100	49.9	> 100
Cc1c2ccncc2cc2c1sc1ccncc12	4.22	12.5	17.1	46.9	> 100	15	9.59	15	28.1	14.3		6.9
CC#COP(=O)(OCC)OCC	> 100	> 100	> 100			> 100	> 100	> 100	> 100			
COc1cc(OCc2ccc3nc(-c4ccccc4)c(N)nc3c2)cc(OC)c1OC	63.8	71.4	36.7	50			68.7	32.4		28.8	51.2	77.8
CCOC(=O)C(c1c[nH]c2ccccc12)(c1c[nH]c2ccccc12)c1c[nH]c2ccccc12	> 100	> 100	98.7	> 100			> 100	78.1		> 100	76.7	> 100

SMILES	TGI [1] [µM]	TGI [2] [µM]	TGI [3] [µM]	TGI [4] [µM]	TGI [5] [µM]	TGI [6] [µM]	TGI [7] [µM]	TGI [8] [µM]	TGI [9] [µM]	TGI [10] [µM]	TGI [11] [µM]	TGI [12] [µM]
COc1ccc(/C=C2\OC(=O)C(Cl)=C2c2ccc(OC)cc2)cc1	> 100	> 100	> 100	70.1			> 100	> 100		> 100	> 100	> 100
NS(=O)(=O)c1cc2c(cc1Cl)NC(C(=O)c1cc(=O)c3ccc(O)cc3o1)=NS2(=O)=O	> 100	> 100	> 100	> 100	> 100	> 100	> 100	> 100				
C[C@@]12C=CC3C/C(=N\C(N)=S)C=C(CCCC4OCCO4)[C@]3(CC1)C2 (some centres not stated)	92.2	69.9	> 100	> 100			88	37.6		33.9	45.5	78.6
COc1cc(S(=O)(=O)Nc2ccc(-c3csc(N4C(=O)CSC4c4cccs4)n3)cc2)ccc1Cl (configuration not stated)	> 100	> 100	48.7	> 100			> 100	70.6		98.2	> 100	62
O=c1c2cc(S(=O)(=O)Nc3ccccc3Cl)ccc2ncn1NS(=O)(=O)c1ccc(Br)cc1	> 37.5	> 37.5	> 37.5	> 37.5			> 37.5	> 37.5		> 37.5	> 37.5	> 37.5
COc1ccccc1C1CC(=O)CC(c2ccccc2OC)C12C(=O)NC(=S)NC2=O (configuration not stated)	> 100	> 100	> 100	> 100			> 100	> 100		52.5	94.3	> 100
C=CCONC(=O)c1ccc(Cl)cc1	> 100	> 100	> 100	> 100	> 100	> 100	> 100	> 100	> 100			
CC[C@H](C)[C@H]1NC(=O)[C@@H](NC(=O)[C@@H](CC(C)C)N(C)C(=O)[C@@H]2CCCN2C(=O)C(C)=O)[C@@H](C)OC(=O)[C@H](Cc2ccc(OC)cc2)N(C)C(=O)[C@@H]2CCCN2C(=O)[C@H](CC(C)C)NC(=O)[C@H](C(C)C)OC(=O)C[C@@H]1O (Pyruvoyl-P[dNMeL]T[X38][Hiv]LP[NMeY](Me); ester 3-C)	0.438	1.22	0.151	0.374			0.525	0.107		0.14	0.158	0.00299
COc1cc(/C=C\c2ccccn2)cc(OC)c1OC	> 100	> 100	> 100	> 100	> 100	> 100	> 100	> 100	> 100			
CC1=NC(=O)C(C)(c2ccccc2)N1CCc1ccccc1 (configuration not stated)	> 100	> 100	> 100	> 100			> 100	> 100		> 100	> 100	> 100
COc1cc2c(cc1OC)-c1[nH]c3ccc(C#N)cc3c1CC(=O)N2	> 100	> 100	> 100	> 100			> 100	> 100		> 90.6	> 100	> 100
COc1ccc(Br)c2c1CC(C(=O)O)CC2 (configuration not stated)	> 100	> 100	> 100	> 100	> 100	> 100	> 100	> 100	> 100	> 100	> 100	> 100
CSc1nc2ccccc2c(=O)n1/N=C1\C(=O)N(CN2CCCCC2)c2ccc(Cl)cc21	> 100	> 100	> 100	> 100			> 100	> 100		> 100	> 100	42.7
N#CC1(C#N)C2CCCCC23OC(=N)C1(C#N)C(c1ccco1)O3 (configuration not stated)	94.2	24.5	> 100	29.2			> 100	48.3		33.8	52.8	90
CCCCCC(=O)Nc1n[nH]nc1C(N)=O	> 100	> 100	> 100	> 100			> 100	> 100		> 100	> 100	> 100
COc1ccc(/C=C(\Cl)c2ccc(OC)c(OC)c2)cc1OC	> 100	> 100	> 100	> 100		> 100	> 100	> 100	> 100	> 100	> 100	> 100
NC(=O)OCC(COc1ccc(Cl)cc1)OC(=O)c1ccccc1Cl (configuration not stated)	95.1	74.8	45.5	45.1	62.8	37.1	62.2	48.6	64.6			
c1csc(-c2cscc2-c2ccsc2)c1	> 100	> 100	> 85.6	> 100			> 100	95		> 63.3	> 68	> 100
c1ccc(Nc2nnc(CSc3nc(-c4ccccc4)c(-c4ccccc4)[nH]3)s2)cc1	> 100		44.1	37.7		> 100	36	34.6	53.3			
O=C1NC(N2CCOCC2)=N/C1=C\c1cccs1	> 100	> 100	> 100	> 100			> 100	> 100		> 100	> 100	> 100
CCOC(=O)CSc1ccnc(=O)[nH]1	> 100	> 100	> 100				> 100	> 100	> 100			
CCCCc1ccc(Nc2nc(Cl)c3c(ncn3COCCOC(C)=O)n2)cc1	35.8	60.1	37.5	43.6			28.2	36.9		34.4	32.9	30.5
